Measurements published in ChEMBL document CHEMBL3997786, “Development of Dihydroxyphenyl Sulfonylisoindoline Derivatives as Liver-Targeting Pyruvate Dehydrogenase Kinase Inhibitors” (J Med Chem, 2017).
pIC50, pKd: −log10 of the molar value.

Key:
[1] = biological target: T1, [Pyruvate dehydrogenase (acetyl-transferring)] kinase isozyme 2, mitochondrial (Homo sapiens, UniProt Q15119); test: Inhibition of N-terminal His6-SUMO tagged recombinant human PDK2 using [32P]-gamma-ATP assessed as decrease in incorporation of radioactivity into E1 protein incubated for 2 mins
[2] = biological target: T1, [Pyruvate dehydrogenase (acetyl-transferring)] kinase isozyme 2, mitochondrial; test: Binding affinity to N-terminal His6-SUMO tagged recombinant human PDK2 by isothermal titration calorimetry
[3] = biological target: T2, [Pyruvate dehydrogenase (acetyl-transferring)] kinase isozyme 1, mitochondrial (Homo sapiens, UniProt Q15118); test: Inhibition of recombinant human PDK1 in presence of E1 protein incubated for 10 mins by titration assay
T2 sequence (Q15118 whole entry): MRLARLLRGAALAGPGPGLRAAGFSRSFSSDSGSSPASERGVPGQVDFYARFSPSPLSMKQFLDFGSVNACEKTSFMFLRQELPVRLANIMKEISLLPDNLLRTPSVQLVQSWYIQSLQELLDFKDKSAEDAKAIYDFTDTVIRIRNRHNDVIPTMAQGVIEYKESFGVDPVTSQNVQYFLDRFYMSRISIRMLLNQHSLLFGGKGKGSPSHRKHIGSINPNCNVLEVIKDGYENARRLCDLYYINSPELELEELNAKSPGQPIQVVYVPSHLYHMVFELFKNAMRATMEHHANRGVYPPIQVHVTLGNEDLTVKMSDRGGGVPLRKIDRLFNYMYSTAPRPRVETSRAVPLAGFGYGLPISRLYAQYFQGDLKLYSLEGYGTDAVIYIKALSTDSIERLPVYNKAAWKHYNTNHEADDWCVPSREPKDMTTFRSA

[4] = biological target: T3, [Pyruvate dehydrogenase (acetyl-transferring)] kinase isozyme 3, mitochondrial (Homo sapiens, UniProt Q15120); test: Inhibition of recombinant human PDK3 in presence of E1 protein incubated for 10 mins by titration assay
T3 sequence (Q15120 whole entry): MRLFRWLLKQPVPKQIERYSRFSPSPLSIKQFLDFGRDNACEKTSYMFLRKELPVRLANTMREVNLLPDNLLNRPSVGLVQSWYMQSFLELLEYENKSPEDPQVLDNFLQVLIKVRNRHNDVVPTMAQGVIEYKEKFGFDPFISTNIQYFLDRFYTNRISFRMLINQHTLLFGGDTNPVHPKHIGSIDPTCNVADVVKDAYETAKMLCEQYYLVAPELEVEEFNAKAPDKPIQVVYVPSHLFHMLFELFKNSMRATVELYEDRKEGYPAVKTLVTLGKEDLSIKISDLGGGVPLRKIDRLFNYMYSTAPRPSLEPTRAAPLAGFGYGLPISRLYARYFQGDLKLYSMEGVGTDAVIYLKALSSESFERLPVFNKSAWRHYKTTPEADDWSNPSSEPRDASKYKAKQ

[5] = biological target: T4, [Pyruvate dehydrogenase (acetyl-transferring)] kinase isozyme 4, mitochondrial (Homo sapiens, UniProt Q16654); test: Inhibition of recombinant human PDK4 in presence of E1 protein incubated for 10 mins by titration assay
T4 sequence (Q16654 whole entry): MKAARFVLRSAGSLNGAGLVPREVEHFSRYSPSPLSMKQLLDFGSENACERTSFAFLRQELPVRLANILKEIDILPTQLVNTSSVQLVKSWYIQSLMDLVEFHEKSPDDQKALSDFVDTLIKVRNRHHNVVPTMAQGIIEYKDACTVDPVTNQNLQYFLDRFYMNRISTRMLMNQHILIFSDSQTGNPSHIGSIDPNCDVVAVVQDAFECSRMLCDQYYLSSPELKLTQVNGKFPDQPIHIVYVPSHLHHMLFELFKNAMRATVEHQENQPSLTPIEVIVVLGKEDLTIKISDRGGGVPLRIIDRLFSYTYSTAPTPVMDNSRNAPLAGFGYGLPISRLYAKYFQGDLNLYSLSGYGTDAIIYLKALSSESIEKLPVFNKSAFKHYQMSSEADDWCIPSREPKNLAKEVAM

[6] = biological target: T2, [Pyruvate dehydrogenase (acetyl-transferring)] kinase isozyme 1, mitochondrial; test: Inhibition of recombinant human PDK1 in presence of E1 protein and PDC core E2/E3BP incubated for 10 mins by titration assay
[7] = biological target: T1, [Pyruvate dehydrogenase (acetyl-transferring)] kinase isozyme 2, mitochondrial; test: Inhibition of N-terminal His6-SUMO tagged recombinant human PDK2 in presence of E1 protein and PDC core E2/E3BP incubated for 10 mins by titration assay
[8] = biological target: T3, [Pyruvate dehydrogenase (acetyl-transferring)] kinase isozyme 3, mitochondrial; test: Inhibition of recombinant human PDK3 in presence of E1 protein and PDC core E2/E3BP incubated for 10 mins by titration assay
[9] = biological target: T4, [Pyruvate dehydrogenase (acetyl-transferring)] kinase isozyme 4, mitochondrial; test: Inhibition of recombinant human PDK4 in presence of E1 protein and PDC core E2/E3BP incubated for 10 mins by titration assay
[10] = test system: Plasma; test: Terminal half life in CD1 mouse plasma at 30 mg/kg, ip by LC-MS/MS analysis; type: ADME, organism-based; details: in vivo
[11] = test system: Plasma; test: Cmax in CD1 mouse plasma at 30 mg/kg, ip by LC-MS/MS analysis; type: ADME, organism-based; design: dose 30 mg/kg, route intraperitoneal; details: in vivo
[12] = Tmax in CD1 mouse plasma at 30 mg/kg, ip by LC-MS/MS analysis; type: ADME, organism-based
[13] = test system: Plasma; test: AUClast in CD1 mouse plasma at 30 mg/kg, ip by LC-MS/MS analysis; type: ADME, organism-based; design: dose 30 mg/kg, route intraperitoneal, time 0 - last; details: in vivo
[14] = test system: Plasma; test: Apparent volume of distribution during terminal phase in CD1 mouse plasma at 30 mg/kg, ip by LC-MS/MS analysis; type: ADME, organism-based; details: in vivo
[15] = Apparent clearance in CD1 mouse plasma at 30 mg/kg, ip by LC-MS/MS analysis; type: ADME, organism-based
[16] = Terminal half life in CD1 mouse muscle at 30 mg/kg, ip by LC-MS/MS analysis; type: ADME, organism-based, Muscle tissue; details: read-out: beta t1/2
[17] = Cmax in CD1 mouse muscle at 30 mg/kg, ip by LC-MS/MS analysis; type: ADME, organism-based, Muscle tissue; design: dose 30 mg/kg, route intraperitoneal
[18] = Tmax in CD1 mouse muscle at 30 mg/kg, ip by LC-MS/MS analysis; type: ADME, organism-based, Muscle tissue
[19] = AUClast in CD1 mouse muscle at 30 mg/kg, ip by LC-MS/MS analysis; type: ADME, organism-based, Muscle tissue; details: in vivo
[20] = Apparent clearance in CD1 mouse muscle at 30 mg/kg, ip by LC-MS/MS analysis; type: ADME, organism-based, Muscle tissue; details: in vivo
[21] = Apparent volume of distribution during terminal phase in CD1 mouse muscle at 30 mg/kg, ip by LC-MS/MS analysis; type: ADME, organism-based, Muscle tissue; details: in vivo
[22] = test system: Liver; test: Terminal half life in CD1 mouse liver at 30 mg/kg, ip by LC-MS/MS analysis; type: ADME, organism-based; details: in vivo
[23] = test system: Liver; test: Cmax in CD1 mouse liver at 30 mg/kg, ip by LC-MS/MS analysis; type: ADME, organism-based; design: dose 30 mg/kg, route intraperitoneal; details: in vivo
[24] = test system: Liver; test: Tmax in CD1 mouse liver at 30 mg/kg, ip by LC-MS/MS analysis; type: ADME, organism-based; details: in vivo
[25] = test system: Liver; test: AUClast in CD1 mouse liver at 30 mg/kg, ip by LC-MS/MS analysis; type: ADME, organism-based; details: in vivo
[26] = test system: Liver; test: Apparent volume of distribution during terminal phase in CD1 mouse liver at 30 mg/kg, ip by LC-MS/MS analysis; type: ADME, organism-based; details: in vivo
[27] = test system: Liver; test: Apparent clearance in CD1 mouse liver at 30 mg/kg, ip by LC-MS/MS analysis; type: ADME, organism-based; details: in vivo
[28] = test system: Mus musculus; test: In vivo inhibition of PDK in DIO C57BL/6J mouse assessed as increase in PDC activity in liver at 40 to 45 mg/kg/day administered through mini osmotic pump for 2 weeks relative to control; type: functional

NC(=O)CC[C@H](N)C(=O)N1CCC(Nc2ccc3c(c2)CN(S(=O)(=O)c2ccc(O)cc2O)C3)CC1
pIC50 [1]: 7.14

NC(=O)C[C@H](N)C(=O)N1CC[C@H](Nc2ccc3c(c2)CN(S(=O)(=O)c2ccc(O)cc2O)C3)C1
pIC50 [1]: 6.81

O=C(O)CCCCC(=O)N1CCC(Nc2ccc3c(c2)CN(S(=O)(=O)c2ccc(O)cc2O)C3)CC1
pIC50 [1]: 5.79

O=S(=O)(c1ccc(O)cc1O)N1Cc2ccc(NC3CCNCC3)cc2C1
pIC50 [1]: 6.71
pKd [2]: 6.96

O=C(O)c1ccccc1C(=O)N1CCC(Nc2ccc3c(c2)CN(S(=O)(=O)c2ccc(O)cc2O)C3)CC1
pIC50 [1]: 6.25

NC(=O)C[C@H](N)C(=O)N1CCN(c2ccc3c(c2)CN(S(=O)(=O)c2ccc(O)cc2O)C3)CC1
pIC50 [1]: 6.12

O=C(C1C[C@@H](O)C(O)[C@H](O)C1)N1CCC(Nc2ccc3c(c2)CN(S(=O)(=O)c2ccc(O)cc2O)C3)CC1 (stereo partly specified)
pIC50 [1]: 6.36

O=S(=O)(c1ccc(O)cc1O)N1Cc2ccc(N3CCCCC3)cc2C1
pIC50 [1]: 5.36

NC(=O)C[C@H](N)C(=O)NCCNc1ccc2c(c1)CN(S(=O)(=O)c1ccc(O)cc1O)C2
pIC50 [1]: 6.45

NC(=O)C[C@H](N)C(=O)N1CCC(Nc2ccc3c(c2)CN(S(=O)(=O)c2ccc(O)cc2O)C3)CC1
pIC50 [1]: 7.24
pIC50 [3]: 5.60
pIC50 [4]: 4.34
pIC50 [5]: 6.55
pIC50 [6]: 5.69
pIC50 [7]: 7.09
pIC50 [8]: 5.77
pIC50 [9]: 6.38
pKd [2]: 7.66
beta t1/2 [10]: 288 min
Cmax [11]: 5443 ng/mL
Tmax [12]: 10 min
AUClast [13]: 234088 ng·min/mL
Vz/F [14]: 1289 mL
CL/F [15]: 3.11 mL/min
half-life [16]: 324 min
Cmax [17]: 2420 ng/g
Tmax [18]: 10 min
AUClast [19]: 83083 ng·min/g
CL/F [20]: 8.64 g/min
Vz/F [21]: 4043 g
beta t1/2 [22]: 303 min
Cmax [23]: 18767 ng/g
Tmax [24]: 30 min
AUClast [25]: 2682301 ng·min/g
Vz/F [26]: 116 g
CL/F [27]: 0.266 g/min
fold change (FC) [28]: 6

NC(=O)C[C@H](N)C(=O)N1CC[C@@H](Nc2ccc3c(c2)CN(S(=O)(=O)c2ccc(O)cc2O)C3)C1
pIC50 [1]: 6.66

N[C@@H](CO)C(=O)N1CCC(Nc2ccc3c(c2)CN(S(=O)(=O)c2ccc(O)cc2O)C3)CC1
pIC50 [1]: 7.17

Nc1ccc2c(c1)CN(S(=O)(=O)c1ccc(O)cc1O)C2
pIC50 [1]: 5.93
